Measured values from patent publication EP4782445A1, “CDK KINASE INHIBITOR AND USE THEREOF” (Abbisko Therapeutics Co., Ltd., priority 2023, dated 2025).

Columns and labels:
CDK6/cyclin D3 = target: T1, CDK6/cyclin D3 (Homo sapiens, UniProt Q00534); assay: In vitro biochemical kinase activity assay for CDK6/cyclin D3 (HTRF); conditions: unmarked data: 100 µM ATP in Step 1
T1 construct: purchased Carna
How it was run: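 HTRF assay: 0.02 nM CDK6/cyclin D3 incubated with 1 mM (or 100 µM) ATP and 0.3 µM Rb-biotin substrate at 30°C for 60 min in kinase buffer with 5 mM MgCl2 and 1 mM DTT.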

CDK4/cyclin D3 = target: T2, CDK4/cyclin D3 (Homo sapiens, UniProt P11802); assay: In vitro biochemical kinase activity assay for CDK4/cyclin D3 (HTRF); conditions: unmarked data: 80 µM ATP in Step 1
T2 construct: purchased Carna
How it was run: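 HTRF kinase reaction: 4.9 nM CDK4/cyclin D3, 1 mM (or 80 µM) ATP and 0.3 µM Rb-biotin substrate, 90 min at 30°C in buffer with 50 mM MgCl2 and 1 mM DTT.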

CDK2/cyclin E1 = target: T3, CDK2/cyclin E1 (Homo sapiens, UniProt P24941); assay: In vitro biochemical kinase activity assay for CDK2/cyclin E1 (HTRF); conditions: 1 µM ATP
T3 construct: purchased Carna
Description: I. In Vitro Biochemical Kinase Activity Assay for CDK2/Cyclin E1
The inhibitory effects of the compounds of the present invention on CDK2/cyclin E1 kinase activity were determined using a homogeneous time-resolved fluorescence (HTRF) assay. The experimental process was as follows: • 1. The kinase reaction was carried out in a 384-well plate. 15 nM CDK2/cyclin E1 kinase (Carna), 1 µM ATP, and 1 µM biotin-labeled substrate protein ATF2-biotin (Cisbio) were incubated at room temperature for 90 min in a buffer system composed of 10 mM MgCl2, 1 mM MnCl2, 1 mM DTT, and basal kinase buffer (Cisbio). • 2. The detection solution (Cisbio, containing reagents that specifically recognize phosphorylated ATF2 and ATF2-biotin proteins, respectively) was added. The plate was then sealed with a film (to protect from light and volatilization) and incubated at 25°C for 60 min. • 3. The plate was transferred to an Envision plate reader to detect fluorescence resonance energy transfer (FRET) signals. (The 665/615 ratio was calculated by reading the emission at 665 nm and 615 nM, respectively.) • 4. The IC50 values were determined by analyzing the inhibition at varying compound concentrations using Model 205 in the XLfit software.

T2 sequence (P11802 whole entry): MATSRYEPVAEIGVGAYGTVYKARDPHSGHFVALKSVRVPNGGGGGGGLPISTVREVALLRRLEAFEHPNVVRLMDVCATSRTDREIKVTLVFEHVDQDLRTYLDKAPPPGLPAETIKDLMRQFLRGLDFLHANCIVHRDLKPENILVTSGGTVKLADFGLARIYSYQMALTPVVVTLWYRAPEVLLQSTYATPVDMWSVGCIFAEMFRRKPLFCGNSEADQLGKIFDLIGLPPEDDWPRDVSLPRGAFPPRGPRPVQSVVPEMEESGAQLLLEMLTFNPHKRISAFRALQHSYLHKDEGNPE
T2 sequence (P30281 whole entry partner): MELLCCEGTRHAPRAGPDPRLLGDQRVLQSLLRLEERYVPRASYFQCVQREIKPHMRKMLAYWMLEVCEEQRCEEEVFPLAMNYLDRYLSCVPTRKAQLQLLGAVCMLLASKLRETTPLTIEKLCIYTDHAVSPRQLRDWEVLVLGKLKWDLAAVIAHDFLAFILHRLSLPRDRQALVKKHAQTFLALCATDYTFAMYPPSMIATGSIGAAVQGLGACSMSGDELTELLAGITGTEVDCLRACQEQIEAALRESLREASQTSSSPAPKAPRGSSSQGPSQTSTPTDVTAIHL
T1 sequence (Q00534 whole entry): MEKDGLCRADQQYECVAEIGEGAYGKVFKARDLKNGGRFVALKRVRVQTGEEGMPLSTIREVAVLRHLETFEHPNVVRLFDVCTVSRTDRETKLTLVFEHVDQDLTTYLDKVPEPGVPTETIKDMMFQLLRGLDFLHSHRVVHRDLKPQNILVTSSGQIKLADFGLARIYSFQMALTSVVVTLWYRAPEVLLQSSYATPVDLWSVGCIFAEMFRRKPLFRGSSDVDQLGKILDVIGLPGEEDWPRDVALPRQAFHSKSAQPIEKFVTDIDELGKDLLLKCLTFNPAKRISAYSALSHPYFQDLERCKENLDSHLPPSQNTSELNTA
T1 sequence (P30281 whole entry partner): as the sequence (P30281 whole entry partner) above

| Compound | IC50 (CDK6/cyclin D3) | IC50 (CDK4/cyclin D3) | IC50 (CDK2/cyclin E1) |
| --- | --- | --- | --- |
| CC(=O)c1ncc(C#Cc2nc(N[C@@H]3CCOC[C@H]3O)ncc2Cl)n1C(C)C [Example 1, 1-(5-((5-chloro-2-(((3S,4R)-3-hydroxytetrahydro-2H-pyran-4-yl)amino)pyrimidin-4-yl)ethynyl)-1-isopropyl-1H-imidazol-2-yl)ethan-1-one] | 24.2 nM | 6.2 nM | 3630 nM |
| CC(C)n1c(C#Cc2nc(N[C@@H]3CCOC[C@H]3O)ncc2Cl)cnc1C(C)(C)O [Example 2, (3S,4R)-4-((5-chloro-4-((2-(2-hydroxypropan-2-yl)-1-isopropyl-1H-imidazol-5-yl)ethynyl)pyrimidin-2-yl)amino)tetrahydro-2H-pyran-3-ol] |  |  | 1320 nM |
| CC(C)n1c(C#Cc2nc(N[C@H]3CCOC[C@@H]3O)ncc2Cl)cnc1C(C)(C)O [Example 3, (3R,4S)-4-((5-chloro-4-((2-(2-hydroxypropan-2-yl)-1-isopropyl-1H-imidazol-5-yl)ethynyl)pyrimidin-2-yl)amino)tetrahydro-2H-pyran-3-ol] |  |  | 467 nM |
| CC(C)n1c(C#Cc2nc(N[C@@H]3CCN(S(C)(=O)=O)C[C@H]3O)ncc2Cl)cnc1C(C)(C)O [Example 24, (3R,4R)-4-((5-chloro-4-((2-(2-hydroxypropan-2-yl)-1-isopropyl-1H-imidazol-5-yl)ethynyl)pyrimidin-2-yl)amino)-1-(methanesulfonyl)piperidin-3-ol] | 3.04 nM | 0.56 nM | 236 nM |
| CC(C)n1c(C#Cc2nc(N[C@@H]3CCOC[C@H]3O)ncc2Cl)cnc1[C@H](C)O [Example 30, (3 S,4R)-4-((5-chloro-4-((2-((S)-1-hydroxyethyl)-1-isopropyl-1H-imidazol-5-yl)ethynyl)pyrimidin-2-yl)amino)tetrahydro-2H-pyran-3-ol] | 11.4 nM | 1.14 nM | 125 nM |
| CC(C)n1c(C#Cc2nc(N[C@@H]3CCOC[C@H]3O)ncc2Cl)cnc1[C@@H](C)O [Example 31, (3 S,4R)-4-((5-chloro-4-((2-((R)-1-hydroxyethyl)-1-isopropyl-1H-imidazol-5-yl)ethynyl)pyrimidin-2-yl)amino)tetrahydro-2H-pyran-3-ol] | 47.1 nM | 7.85 nM | 590 nM |
| CNCc1ncc(C#Cc2nc(N[C@@H]3CCOC[C@H]3O)ncc2Cl)n1C(C)C [Example 35, (3 S,4R)-4-((5-chloro-4-((1-isopropyl-2-((methylamino)methyl)-1H-imidazol-5-yl)ethynyl)pyrimidin-2-yl)amino)tetrahydro-2H-pyran-3-ol] | 131 nM | 19 nM | 539 nM |
| CC(C)NCc1ncc(C#Cc2nc(N[C@@H]3CCOC[C@H]3O)ncc2Cl)n1C(C)C [Example 40, (3 S,4R)-4-((5-chloro-4-((1-isopropyl-2-((isopropylamino)methyl)-1H-imidazol-5-yl)ethynyl)pyrimidin-2-yl)amino)tetrahydro-2H-pyran-3-ol] | 299 nM | 30.8 nM | 1970 nM |
| CCN1CCN(Cc2ccc(Nc3ncc(Cl)c(C#Cc4cnc(C(C)(C)O)n4C(C)C)n3)nc2)CC1 [Example 41, 2-(5-((5-chloro-2-((5-((4-ethylpiperazin-1-yl)methyl)pyridin-2-yl)amino)pyrimidin-4-yl)ethynyl)-1-isopropyl-1H-imidazol-2-yl)propan-2-ol] | 11 nM | 1.83 nM | 1850 nM |
| CC(=O)c1ncc(C#Cc2nc(N[C@@H]3CCOC[C@H]3O)ncc2Cl)n1C(C)C [Example 52, 1-(5-((5-chloro-2-(((3 S,4R)-3-hydroxytetrahydro-2H-pyran-4-yl)amino)pyrimidin-4-yl)ethynyl)-1-isopropyl-1H-imidazol-2-yl)ethan-1-one] | 24.2 nM | 6.22 nM | 2930 nM |
| CC(C)n1c(C#Cc2nc(N[C@@H]3COC[C@H]3O)ncc2Cl)cnc1C(C)(C)O [Example 53, (3 S,4R)-4-((5-chloro-4-((2-(2-hydroxypropan-2-yl)-1-isopropyl-1H-imidazol-5-yl)ethynyl)pyrimidin-2-yl)amino)tetrahydrofuran-3-ol] | 192 nM | 60.9 nM | 493 nM |
| CC(C)n1c(C#Cc2nc(Nc3ccc(C4CCN(C)CC4)cn3)ncc2Cl)cnc1C(C)(C)O [Example 55, 2-(5-((5-chloro-2-((5-(1-methylpiperidin-4-yl)pyridin-2-yl)amino)pyrimidin-4-yl)ethynyl)-1-isopropyl-1H-imidazol-2-yl)propan-2-ol] | 1.9 nM | 0.33 nM | 2120 nM |
| CC(C)c1c(C#Cc2nc(N[C@@H]3CCOC[C@H]3O)ncc2Cl)cnn1C [Example 56, (3 S,4R)-4-((5-chloro-4-((5-isopropyl-1-methyl-1H-pyrazol-4-yl)ethynyl)pyrimidin-2-yl)amino)tetrahydro-2H-pyran-3-ol] | 49 nM | 3.07 nM | 1370 nM |
| CC(C)c1c(C#Cc2nc(Nc3ccc(C4CCN(C)CC4)cn3)ncc2Cl)cnn1C [Example 57, 5-chloro-4-((5-isopropyl-1-methyl-1H-pyrazol-4-yl)ethynyl)-N-(5-(1-methylpiperidin-4-yl)pyridin-2-yl)pyrimidin-2-amine] | 3.7 nM | 0.68 nM | 2830 nM |
| CCN1CC2(C1)CN(c1ccc(Nc3ncc(F)c(C#Cc4cnn(C)c4C(C)C)n3)nc1)C2 [Example 61, N-(5-(6-ethyl-2,6-diazaspiro[3.3]heptan-2-yl)pyridin-2-yl)-5-fluoro-4-((5-isopropyl-1-methyl-1H-pyrazol-4-yl)ethynyl)pyrimidin-2-amine] | 8.46 nM | 0.94 nM | 617 nM |
| CCN1CC2(C1)CN(c1ccc(Nc3ncc(Cl)c(C#Cc4cnn(C)c4C(C)C)n3)nc1)C2 [Example 62, 5-chloro-N-(5-(6-ethyl-2,6-diazaspiro[3.3]heptan-2-yl)pyridin-2-yl)-4-((5-isopropyl-1-methyl-1H-pyrazol-4-yl)ethynyl)pyrimidin-2-amine] | 4.86 nM | 0.36 nM | 129 nM |
| CC(C)n1c(C#Cc2nc(N[C@@H]3CCOC[C@H]3O)ncc2Cl)cnc1CN(C)C [Example 63, (3 S,4R)-4-((5-chloro-4-((2-((dimethylamino)methyl)-1-isopropyl-1H-imidazol-5-yl)ethynyl)pyrimidin-2-yl)amino)tetrahydro-2H-pyran-3-ol] | 130 nM | 23.8 nM | 693 nM |
| CC(C)n1c(C#Cc2cc(N[C@@H]3CCOC[C@H]3O)ncc2Cl)cnc1CN1CCC[C@H](O)C1 [Example 109, (S)-1-((5-((5-chloro-2-(((3 S,4R)-3-hydroxytetrahydro-2H-pyran-4-yl)amino)pyridin-4-yl)ethynyl)-1-isopropyl-1H-imidazol-2-yl)methyl)piperidin-3-ol] | 223 nM | 4.5 nM | 3190 nM |
